In patent US7659245B2, “Macrocylic inhibitors of hepatitis C virus” (Tibotec Pharmaceuticals Ltd, priority 2005, dated 2010) one finds EC50 and Ki data, which are given here for 13 molecules.

Assay [1] relates to HCV replicons (Huh-7 luc/neo cells, NS3-NS5B regions of HCV type 1b). As to the kind of experiment: Replicon assay: inhibition of HCV RNA replication in Huh-Luc cells (luciferase read-out). To be noted: Hepatitis C virus, Huh-7, 72 h, HCV type 1b replicon, luciferase activity after three days. In kind it is cell-based. Here is the method:
The in vitro antiviral activity against HCV of the compounds of formula (I) was tested in a cellular HCV replicon system based on Lohmann et al. (1999) Science 285:110-113, with the further modifications described by Krieger et al. (2001) Journal of Virology 75: 4614-4624 (incorporated herein by reference), which is further exemplified in the examples section. This model, while not a complete infection model for HCV, is widely accepted as the most robust and efficient model of autonomous HCV RNA replication currently available. […] It will be appreciated that it is important to distinguish between compounds that specifically interfere with HCV functions from those that exert cytotoxic or cytostatic effects in the HCV replicon model, and as a consequence cause a decrease in HCV RNA or linked reporter enzyme concentration. Assays are known in the field for the evaluation of cellular cytotoxicity based for example on the activity of mitochondrial enzymes using fluorogenic redox dyes such as resazurin. Furthermore, cellular counter screens exist for the evaluation of non-selective inhibition of linked reporter gene activity, such as firefly luciferase. Appropriate cell types can be equipped by stable transfection with a luciferase reporter gene whose expression is dependent on a constitutively active gene promoter, and such cells can be used as a counter-screen to eliminate non-selective inhibitors.
The compounds of formula (I) were examined for activity in the inhibition of HCV RNA replication in a cellular assay. […] The cellular assay was based on a bicistronic expression construct, as described by Lohmann et al. (1999) Science vol. 285 pp. 110-113 with modifications described by Krieger et al. (2001) Journal of Virology 75: 4614-4624, in a multi-target screening strategy. In essence, the method was as follows.
The assay utilized the stably transfected cell line Huh-7 luc/neo (hereafter referred to as Huh-Luc). This cell line harbors an RNA encoding a bicistronic expression construct comprising the wild type NS3-NS5B regions of HCV type 1b translated from an Internal Ribosome Entry Site (IRES) from encephalomyocarditis virus (EMCV), preceded by a reporter portion (FfL-luciferase), and a selectable marker portion (neo^R, neomycine phosphotransferase). The construct is bordered by 5′ and 3′ NTRs (non-translated regions) from HCV type 1b. Continued culture of the replicon cells in the presence of G418 (neo^R) is dependent on the replication of the HCV RNA. The stably transfected replicon cells that express HCV RNA, which replicates autonomously and to high levels, encoding inter alia luciferase, are used for screening the antiviral compounds.
The replicon cells were plated in 384 well plates in the presence of the test and control compounds which were added in various concentrations. Following an incubation of three days, HCV replication was measured by assaying luciferase activity (using standard luciferase assay substrates and reagents and a Perkin Elmer ViewLux™ ultraHTS microplate imager). Replicon cells in the control cultures have high luciferase expression in the absence of any inhibitor. The inhibitory activity of the compound on luciferase activity was monitored on the Huh-Luc cells, enabling a dose-response curve for each test compound. EC50 values were then calculated, which value represents the amount of the compound required to decrease by 50% the level of detected luciferase activity, or more specifically, the ability of the genetically linked HCV replicon RNA to replicate.
In general terms: Replicon systems follow genome replication, usually without infectious particles.

In assay [2] the target is full-length hepatitis C NS3 protease enzyme (HCV NS3/4A protease complexes) (Hepatitis C virus genotype 1a, UniProt P27958). As to the kind of experiment: Inhibition assay (enzymatic assay) of HCV NS3/4A protease. The format is biochemical. Conditions: enzyme 1 nM, 25 μM NS4A cofactor, 0.5 μM depsipeptide substrate, 30° C., competitive model. Here is the method:
The aim of this in vitro assay is to measure the inhibition of HCV NS3/4A protease complexes by the compounds of the present invention. This assay provides an indication of how effective compounds of the present invention would be in inhibiting HCV NS3/4A proteolytic activity.
The inhibition of full-length hepatitis C NS3 protease enzyme was measured essentially as described in Poliakov, 2002 Prot Expression & Purification 25 363 371. Briefly, the hydrolysis of a depsipeptide substrate, Ac-DED(Edans)EEAbuψ[COO]ASK(Dabcyl)-NH2 (AnaSpec, San José, USA), was measured spectrofluorometrically in the presence of a peptide cofactor, KKGSVVIVGRIVLSGK (Åke Engström, Department of Medical Biochemistry and Microbiology, Uppsala University, Sweden). [Landro, 1997 #Biochem 36 9340-9348]. The enzyme (1 nM) was incubated in 50 mM HEPES, pH 7.5, 10 mM DTT, 40% glycerol, 0.1% n-octyl-D-glucoside, with 25 μM NS4A cofactor and inhibitor at 30° C. for 10 min, whereupon the reaction was initiated by addition of 0.5 μM substrate. Inhibitors were dissolved in DMSO, sonicated for 30 sec. and vortexed. The solutions were stored at −20° C. between measurements.
The final concentration of DMSO in the assay sample was adjusted to 3.3%. The rate of hydrolysis was corrected for inner filter effects according to published procedures. [Liu, 1999 Analytical Biochemistry 267 331-335]. Ki values were estimated by non-linear regression analysis (GraFit, Erithacus Software, Staines, MX, UK), using a model for competitive inhibition and a fixed value for Km (0.15 μM). A minimum of two replicates was performed for all measurements.

Chain of full-length hepatitis C NS3 protease enzyme (HCV NS3/4A protease complexes) (P27958 1027-1657, one chain of several): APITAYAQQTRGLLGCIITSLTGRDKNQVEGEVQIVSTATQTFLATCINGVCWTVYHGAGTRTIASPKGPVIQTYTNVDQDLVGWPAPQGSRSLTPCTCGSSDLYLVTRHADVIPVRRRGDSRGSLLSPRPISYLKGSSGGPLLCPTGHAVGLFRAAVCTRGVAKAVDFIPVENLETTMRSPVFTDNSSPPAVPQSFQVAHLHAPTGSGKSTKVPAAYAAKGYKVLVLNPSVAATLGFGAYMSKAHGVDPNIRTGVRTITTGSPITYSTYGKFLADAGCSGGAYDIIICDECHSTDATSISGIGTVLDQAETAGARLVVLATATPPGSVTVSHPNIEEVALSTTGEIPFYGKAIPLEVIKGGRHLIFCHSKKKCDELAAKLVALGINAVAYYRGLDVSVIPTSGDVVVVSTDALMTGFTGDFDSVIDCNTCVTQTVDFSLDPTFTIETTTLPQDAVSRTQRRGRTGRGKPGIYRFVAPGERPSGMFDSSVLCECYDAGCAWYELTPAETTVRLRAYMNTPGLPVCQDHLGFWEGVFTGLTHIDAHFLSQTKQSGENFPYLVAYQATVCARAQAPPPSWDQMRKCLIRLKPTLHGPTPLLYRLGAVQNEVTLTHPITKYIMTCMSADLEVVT

By EC50 is commonly meant the concentration that produces a half-maximal response. For orientation: Ki means a dissociation constant, usually derived from enzyme kinetics or from competition with a known ligand. As to `COc1ccc2c(O[C@@H]3C[C@H]4C(=O)N[C@]5(C(=O)NS(=O)(=O)C6CC6)C[C@H]5/C=C\CCCCCNC(=O)N4C3)nc(-c3ccc(F)cc3)nc2c1C` [Compound 104, Cyclopropanesulfonic acid {18-[2-(4-fluoro-phenyl)-7-methoxy-8-methyl-quinazolin-4-yloxy]-2,15-dioxo-3,14,16-triaza-tricyclo[14.3.0.0*4,6*]nonadec-7-ene-4-carbonyl}-amide], the EC50 in assay [1] was in the range of 0.5 to 199 nM. The Ki in assay [2] lay in the range of 0.1 to 4.9 nM.
Taken in the same sequence, the figures for `COc1cc2nc(-c3ccccc3)nc(O[C@@H]3C[C@H]4C(=O)N[C@]5(C(=O)NS(=O)(=O)C6CC6)C[C@H]5/C=C\CCCCN(C)C(=O)[C@@H]4C3)c2cc1C` [Compound 114] were 0.5 to 199 nM and 0.1 to 4.9 nM.
Taken in the same sequence, the figures for `COc1ccc2c(O[C@@H]3C[C@H]4C(=O)N[C@]5(C(=O)NS(=O)(=O)C6CC6)C[C@H]5/C=C\CCCCN(C)C(=O)N4C3)nc(-c3cccc(C)n3)nc2c1C` [Compound 119, Cyclopropanesulfonic acid {17-[7-methoxy-8-methyl-2-(6-methyl-pyridin-2-yl)-quinazolin-4-yloxy]-13-methyl-2,14-dioxo-3,13,15-triazatricyclo[13.3.0.0*4,6*]octadec-7-ene-4-carbonyl}-amide] were 0.5 to 199 nM and 0.1 to 4.9 nM.
On to `COc1cc2nc(-c3ccccc3)nc(O[C@@H]3C[C@H]4C(=O)N[C@]5(C(=O)NS(=O)(=O)C6CC6)C[C@H]5/C=C\CCCCN(C)C(=O)N4C3)c2cc1C` [Compound 121, Cyclopropanesulfonic acid [17-(7-methoxy-6-methyl-2-phenyl-quinazolin-4-yloxy)-13-methyl-2,14-dioxo-3,13,15-triaza-tricyclo[13.3.0.0*4,6*]octadec-7-ene-4-carbonyl]-amide], for which the EC50 in assay [1] was in the range of 0.5 to 199 nM. Also, the Ki in assay [2] was 0.1 to 4.9 nM.
On to `COc1ccc(-c2nc(O[C@@H]3C[C@H]4C(=O)N[C@]5(C(=O)NS(=O)(=O)C6CC6)C[C@H]5/C=C\CCCCN(C)C(=O)N4C3)c3ccc(OC)c(C)c3n2)cc1` [Compound 131, Cyclopropanesulfonic acid {17-[7-methoxy-2-(4-methoxy-phenyl)-8-methyl-quinazolin-4-yloxy]-13-methyl-2,14-dioxo-3,13,15-triaza-tricyclo[13.3.0.0*4,6*]-octadec-7-ene-4-carbonyl}-amide], for which the EC50 in assay [1] lay within 0.5 to 199 nM. This molecule had a Ki in assay [2] of 0.1 to 4.9 nM.
In the case of `COc1ccc(-c2nc(O[C@@H]3C[C@H]4C(=O)N[C@]5(C(=O)NS(=O)(=O)C6(C)CC6)C[C@H]5/C=C\CCCCN(C)C(=O)N4C3)c3ccc(OC)c(C)c3n2)cc1` [Compound 132, 1-Methyl-cyclopropanesulfonic acid {17-[7-methoxy-2-(4-methoxy-phenyl)-8-methyl-quinazolin-4-yloxy]-13-methyl-2,14-dioxo-3,13,15-triaza-tricyclo[13.3.0.0*4,6*]octadec-7-ene-4-carbonyl}-amide], in assay [1], the EC50 lay within 0.5 to 199 nM. The molecule further displayed a Ki in assay [2] of 0.1 to 4.9 nM.
In the same order, the values of `COc1ccc(-c2nc(O[C@@H]3C[C@H]4C(=O)N[C@]5(C(=O)NS(=O)(=O)C6CC6)C[C@H]5/C=C\CCCCN(C)C(=O)[C@@H]4C3)c3ccc(OC)c(C)c3n2)cc1` [Compound 138, Cyclopropanesulfonic acid {17-[7-methoxy-2-(4-methoxy-phenyl)-8-methyl-quinazolin-4-yloxy]-13-methyl-2,14-dioxo-3,13-diaza-tricyclo[13.3.0.0*4,6*]octadec-7-ene-4-carbonyl}-amide] are 0.5 to 199 nM and 0.1 to 4.9 nM.
On to `COc1ccc2c(O[C@@H]3C[C@H]4C(=O)N[C@]5(C(=O)NS(=O)(=O)C6CC6)C[C@H]5/C=C\CCCCN(C)C(=O)[C@@H]4C3)nc(-n3ccc(C(C)C)n3)nc2c1C` [Compound 147, N-[17-[2-(3-isopropylpyrazol-1-yl)-7-methoxy-8-methylquinazolin-4-yloxy]-13-methyl-2,14-dioxo-3,13-diazatricyclo[13.3.0.0^4,6]octadec-7-ene-4-carbonyl](cyclo-propyl)sulfonamide], for which, in assay [1], the EC50 is 0.5 to 199 nM. This molecule yielded a Ki in assay [2] of 0.1 to 4.9 nM.
Taken in the same sequence, the figures for `CCOc1nc(O[C@@H]2C[C@H]3C(=O)N[C@]4(C(=O)NS(=O)(=O)C5CC5)C[C@H]4/C=C\CCCCN(C)C(=O)[C@@H]3C2)c2ccc(OC)c(C)c2n1` [Compound 150, N-[17-[2-Ethoxy-7-methoxy-8-methylquinazolin-4-yloxy]-13-methyl-2,14-dioxo-3,13-diazatricyclo[13.3.0.0^4,6]octadec-7-ene-4-carbonyl](cyclopropyl)sulfonamide] were 0.5 to 199 nM and 0.1 to 4.9 nM.
As for `COc1ccc2c(O[C@H]3CC4C(=O)N(C)CCCC/C=C\[C@@H]5C[C@@]5(C(=O)NS(=O)(=O)C5CC5)NC(=O)[C@@H]4C3)nc(-c3ccc(F)cc3)nc2c1C` (some centres unmarked) [Compound 154], the EC50 in assay [1] is 0.5 to 199 nM. In assay [2], the Ki was in the range of 0.1 to 4.9 nM.
For `COc1ccc2c(O[C@@H]3C[C@H]4C(=O)N[C@]5(C(=O)NS(=O)(=O)C6CC6)C[C@H]5/C=C\CCCCN(C)C(=O)[C@@H]4C3)nc(-c3cccc(F)c3)nc2c1C` [Compound 160, Cyclopropanesulfonic acid {17-[2-(3-fluoro-phenyl)-7-methoxy-8-methyl-quinazolin-4-yloxy]-13-methyl-2,14-dioxo-3,13-diaza-tricyclo[13.3.0.0*4,6*]octadec-7-ene-4-carbonyl}-amide], the EC50 in assay [1] lay in the range of 0.5 to 199 nM. This molecule returned a Ki in assay [2] of 0.1 to 4.9 nM.
Turning to `COc1ccc2c(O[C@@H]3C[C@H]4C(=O)N[C@]5(C(=O)NS(=O)(=O)C6(C)CC6)C[C@H]5/C=C\CCCCN(C)C(=O)[C@@H]4C3)nc(-c3cccc(F)c3)nc2c1C` [Compound 161, 1-Methyl-cyclopropanesulfonic acid {17-[2-(3-fluoro-phenyl)-7-methoxy-8-methyl-quinazolin-4-yloxy]-13-methyl-2,14-dioxo-3,13-diazatricyclo[13.3.0.0*4,6*]octadec-7-ene-4-carbonyl}-amide], in assay [1], the EC50 fell in the range of 0.5 to 199 nM. In addition, the Ki in assay [2] was in the range of 0.1 to 4.9 nM.
Taken in the same sequence, the figures for `COc1ccc2c(O[C@@H]3C[C@H]4C(=O)N[C@]5(C(=O)NS(=O)(=O)C(C)C)C[C@H]5/C=C\CCCCN(C)C(=O)[C@@H]4C3)nc(-c3cccc(F)c3)nc2c1C` [Compound 162, Propane-2-sulfonic acid {17-[2-(3-fluoro-phenyl)-7-methoxy-8-methyl-quinazolin-4-yloxy]-13-methyl-2,14-dioxo-3,13-diazatricyclo[13.3.0.0*4,6*]octadec-7-ene-4-carbonyl}-amide] were 200 to 990 nM and 0.1 to 4.9 nM.
